Source: patent publication US20230330093A1, “APPLICATION OF NITROGEN-CONTAINING SATURATED HETEROCYCLIC COMPOUND” (SHANGHAI PHARMACEUTICALS HOLDING CO., LTD., priority 2020, published 2023)

Columns and labels:
cynomolgus monkeys = assay: 4-week safety study: urinalysis; format: in vivo; settings: male and female monkeys
Experimental: For the monkey study, at quarantine period (twice, d01 and d02), day 14, day 28 and day 56, the following parameters were measured as shown in Table 20. (1) Hematological and coagulation index examination were performed using a Bayer ADVIA2120 (Germany) and a Sysmex CA-1500 (Japan). (2) The serum biochemical examination was assessed using a HITACHI 7080 automated analyzer (Japan) and an Easylyte PLUS electrolyte analyzer (MEDICA, America). (3) The 24-h pooled urine of each animal was collected by a tray under each cage. Urinalysis was carried out using Uritest-300 (China). (4) The 24-h pooled faeces of each monkey were collected by a tray under each cage. Fecal occult blood was detected. (5) ACCESS 2 Chemiluminescence immunoassay was used for myocardial troponin (TropI, non-GLP) test.

[1] = tested on: rhesus monkeys with spontaneous chronic kidney disease; assay: Safety tolerance study (adverse events, liver and renal function, food intake, body weight, hematology), 8-week administration; format: in vivo, Macaca mulatta (Rhesus Macaque); settings: 1, 2, 5 mg/kg qd groups, 8-week administration period
From the text: Glucose and lipid metabolism and liver function: FPG, FRA, LDL-c, HDL-c, TG, TC, NT-proBNP, ALT, AST, TBIL, etc., twice before administration, once at weeks 4 and 8 respectively after administration;
Other biochemical indicators and hematology testing, once each before and after administration;
Body weight: once before administration, once a week during the administration period;
Hematology testing equipment: Siemens ADVIA 2120i Hematology Systems.
Number of observations: Observation was performed once a day.
Observation method: observation in cage.
Observation content: injection site, skin, hair, eyes, ears, nose, oral cavity, chest, abdomen, urogenital, limbs and other parts, as well as breathing, exercise, urinary, defecation and behavior changes.
Feeding method: Food was supplied once at 8:009:00 in the morning, 10:00 in the morning, 2:00 in the afternoon, and 4:00 in the afternoon, respectively, to ensure that there was food in the food box and animals ate freely. The remaining feed was removed at 07:40-8:00 in the next day.
Feeding amount: about 250-500 g/animal/day. In the experiment, it was ensured that there was feed in the food box for 24 hours, and the animals can eat freely.
Method for measuring food intake: The feed was estimated by a semi-quantitative method, and the amount of food given, the amount discarded and the remaining amount in food boxes were recorded every day. […]

Structure (SMILES)	urinalysis parameters (cynomolgus monkeys)	adverse events related to administration [1]	changes in liver function, renal function, food intake, body weight, hematological indicators [1]
COC(=O)NCCCn1nc([C@@H](C)N(C(=O)[C@H]2CNCCO2)C2CC2)c2ccc(C)nc21 [compound of Formula I]	No significant changes		
COC(=O)NCCCn1nc([C@@H](C)N(C(=O)[C@H]2CNCCO2)C2CC2)c2ccc(C)nc21.O=C(O)C[C@H](O)C(=O)O [malate of compound of Formula I]		no adverse events related to administration	no significant changes were observed
